Where two headings read alike, the source gives them in different places.
What was measured:
[1] = tested on: T98G cells; assay: Antitumor activity in T98G cells in culture (WST-1 cell viability); format: cell-based, human; conditions: for increase in EC50 value relative to compound 8: compared with 8 (87 nM); for Emax: read-out: maximal efficacy at killing T98G cells
Experimental: Unless otherwise noted, maximal efficacies were measured at 10 μM. Data are the mean of at least three independent experiments performed in triplicate.
Cell culture. Cells were cultured in DMEM supplemented with 10% FBS, 100 U/mL penicillin, and 100 μg/mL streptomycin at 37° C. in a 5% CO2 humidified atmosphere. T98G and HepG2 cells (ATCC, Manassas, Va.) were authenticated by ATCC when purchased using human short tandem repeat analysis and maintained in culture for less than 6 months. Tumors were obtained from surgeries performed at the Swedish Medical Center (Seattle, Wash.) according to Institutional Review Board guidelines. Patient samples used in this study were diagnosed as WHO grade IV glioblastoma multiforme. Patient-derived GBM cells were established from the freshly resected tumor tissues and maintained in NeuroCult® NSA medium (Stem Cell Technologies) with B-27 serum-free supplement, 20 ng/mL epidermal growth factor and 20 ng/mL fibroblast growth factor 2 as previously described.
Cell viability. […] Maximal % killing was calculated as the % reduction in cell viability measured at all drug concentration. EC50 values were calculated and reported only when a curve was reliably extrapolated by Prism software. The solvent for all modified carbazoles was DMSO (0.1% final).

[2] = molecular target: T1, tubulin (Sus scrofa, UniProt P02550+P02554); assay: Tubulin polymerization with fluorescent tubulin (Cytoskeleton Inc.); format: biochemical
T1 construct: purchased Cytoskeleton Inc
Experimental: Real-time tubulin polymerization was measured by quantifying increase in fluorescent tubulin assembly in microtubule (RFU) as a function of time (minutes).
Dose-response curves that generated results in Table 5. Tubulin assembly was measured using fluoresent-rescent tubulin in 100 μl according to manufacturer's protocol (Cytoskeleton Inc.).

[3] = tested on: NCI-60 cancer cell line panel; assay: NCI-60 cancer cell line panel screen (percent growth inhibition); format: cell-based, human
Source text: FIG. 4 illustrates analysis of cell-killing activity of select compounds of the disclosure in NCI-60 cancer cell line panel. 8, 20, 27 and 23 (left panel) and taxol, thalipcarpine, and maytansine activity (right panel) in the NCI-60 cell lines.
This screening platform measures the antitumor activities of compounds expressed as percent growth inhibition, which differentiates the compound's activity at inhibiting cell proliferation and reducing cell number (i.e. killing cells). […] Two GBM cells lines included in the NCI-60 panel, SF-295 and SF-539, were among the top ten cell lines that were the most sensitive to 8, 20 and 27 treatments (FIG. 6). Their respective EC50 values of the compounds measured in these cells mirrored their EC50 values measured in T98G cells. Additional cell lines among the top ten cell lines that were sensitive to these three compounds were three cell lines of colon cancer origin: Colo205, HT-29 and HCC-2998 (FIG. 5).

[4] = molecular target: T2, colchicine site of tubulin (purified tubulin) (Bos taurus, UniProt P81947+Q6B856); assay: [3H]colchicine binding to purified tubulin; parameters: species or system bovine; conditions: read-out: Colchicine Binding % inhibition (mean ± SD) at 5 μM
T2 construct: from tissue; host or cells: native tubulin
Experimental: (§1) Results are mean±SEM from n=4-5 independent experiments performed in triplicates. […] Results are from 3 independent experiments performed in duplicate.
First, it was determined whether compounds of the disclosure compete for [^3H]colchicine binding to native purified tubulin as previously described.
[^3H]Colchicine binding to purified tubulin and tubulin assembly. [^3H]Colchicine binding to purified tubulin and tubulin assembly (as assessed by turbidity development in purified bovine tubulin solutions) were both measured as previously described.

[5] = molecular target: T3, sheared MTs / bovine brain tubulin (Bos taurus, UniProt P81947+Q6B856); assay: MT-tubulin partitioning (free tubulin pelleting assay, gel quantification); format: biochemical
T3 construct: Bovine brain tubulin was purified, polymerized into MTs and sheared; from tissue; host or cells: bovine brain
Experimental: as §1
Next tested was their ability to inhibit the assembly of purified tubulin using an in vitro turbidity assay as previously described. […] In this assay, compounds are incubated with sheared MTs at 37° C. and the resulting amounts of tubulin dimers (free tubulin) and polymer (MT) after 15 min is measured on polyacrylamide gels.
MT-tubulin partitioning. Bovine brain tubulin was purified, polymerized into MTs and sheared as previously described. Sheared MTs and drugs were incubated at 37° C. for 15 min and centrifuged for 10 min at 42,000 rpm at 37° C. prior to separation into supernatants containing free tubulin and pellets containing polymerized MTs as previously described. […] Peak intensities were quantified using ImageJ.

[6] = molecular target: T4, cannabinoid CB1 receptor (hCB1) (Homo sapiens, UniProt P21554); assay: β-arrestin recruitment in hCB1-transfected HEK293 cells; format: cell-based; conditions: β-arrestin recruitment
T4 construct: expressed in transfected cells; host or cells: HEK293

[7] = molecular target: T5, cannabinoid CB2 receptor (hCB2) (Homo sapiens, UniProt P34972); assay: β-arrestin recruitment in hCB2-transfected HEK293 cells; format: cell-based
T5 construct: expressed in transfected cells; host or cells: HEK293

[8] = Homo sapiens, T98G cells, WST-1, 72 hours after treatment, read-out: EC50
[9] = Homo sapiens, T98G, T98G cells, rounded values of the discussion
[10] = Homo sapiens, T98G cells, rounded values of the discussion

T5 sequence (P34972 whole entry): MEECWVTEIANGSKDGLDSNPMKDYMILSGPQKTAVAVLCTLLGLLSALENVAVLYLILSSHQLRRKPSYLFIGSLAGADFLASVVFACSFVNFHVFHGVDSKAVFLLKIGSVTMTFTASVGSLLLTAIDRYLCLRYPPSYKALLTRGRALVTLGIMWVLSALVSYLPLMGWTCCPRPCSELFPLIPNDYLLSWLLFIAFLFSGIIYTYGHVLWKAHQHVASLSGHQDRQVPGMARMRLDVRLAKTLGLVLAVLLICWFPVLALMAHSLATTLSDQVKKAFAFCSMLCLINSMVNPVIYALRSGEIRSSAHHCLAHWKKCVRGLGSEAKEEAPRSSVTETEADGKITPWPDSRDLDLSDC
T4 sequence (P21554 whole entry): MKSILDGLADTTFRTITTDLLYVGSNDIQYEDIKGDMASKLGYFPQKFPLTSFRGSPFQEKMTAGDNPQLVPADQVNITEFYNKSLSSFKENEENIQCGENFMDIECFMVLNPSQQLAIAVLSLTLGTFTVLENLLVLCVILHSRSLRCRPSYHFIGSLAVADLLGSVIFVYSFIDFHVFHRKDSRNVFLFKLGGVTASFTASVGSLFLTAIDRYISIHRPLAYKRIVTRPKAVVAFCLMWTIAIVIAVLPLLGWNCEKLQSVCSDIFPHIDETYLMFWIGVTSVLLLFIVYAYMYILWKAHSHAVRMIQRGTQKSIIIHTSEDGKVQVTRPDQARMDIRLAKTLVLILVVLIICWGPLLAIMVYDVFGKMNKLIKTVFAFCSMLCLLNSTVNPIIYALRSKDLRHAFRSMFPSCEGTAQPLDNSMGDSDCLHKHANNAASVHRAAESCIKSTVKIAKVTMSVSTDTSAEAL
T1 sequence (P02554 whole entry): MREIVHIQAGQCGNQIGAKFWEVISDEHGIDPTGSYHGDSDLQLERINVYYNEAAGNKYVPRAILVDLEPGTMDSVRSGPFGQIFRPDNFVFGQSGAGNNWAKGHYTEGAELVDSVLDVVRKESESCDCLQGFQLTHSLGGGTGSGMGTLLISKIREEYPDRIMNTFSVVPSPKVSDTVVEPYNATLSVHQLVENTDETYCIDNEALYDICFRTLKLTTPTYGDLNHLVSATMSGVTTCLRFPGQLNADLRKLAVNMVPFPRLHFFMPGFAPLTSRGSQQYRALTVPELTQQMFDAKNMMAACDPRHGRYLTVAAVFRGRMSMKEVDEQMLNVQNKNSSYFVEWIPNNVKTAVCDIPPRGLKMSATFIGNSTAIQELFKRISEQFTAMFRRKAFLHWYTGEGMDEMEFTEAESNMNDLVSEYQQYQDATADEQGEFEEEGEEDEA
T1 sequence (P02550 whole entry): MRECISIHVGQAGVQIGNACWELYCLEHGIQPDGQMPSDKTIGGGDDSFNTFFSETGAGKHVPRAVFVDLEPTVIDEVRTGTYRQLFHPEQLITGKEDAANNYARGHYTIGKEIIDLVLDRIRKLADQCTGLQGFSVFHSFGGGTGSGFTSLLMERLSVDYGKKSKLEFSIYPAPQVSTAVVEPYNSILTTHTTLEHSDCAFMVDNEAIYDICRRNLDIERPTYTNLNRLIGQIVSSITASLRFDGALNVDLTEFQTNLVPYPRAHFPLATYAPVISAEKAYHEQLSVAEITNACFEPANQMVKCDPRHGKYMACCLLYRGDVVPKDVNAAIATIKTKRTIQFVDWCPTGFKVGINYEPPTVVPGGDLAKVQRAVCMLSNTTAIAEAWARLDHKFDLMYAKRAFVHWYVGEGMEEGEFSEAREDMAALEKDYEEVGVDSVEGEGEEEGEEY
T3 sequence (Q6B856 whole entry): as the sequence (P02554 whole entry) above, with A55T, V170M, A296S, V316I, G440E, E441G counted along it
T3 sequence (P81947 whole entry): as the sequence (P02550 whole entry) above, with S136L, G232S, A265I, T340S, E358Q counted along it
T2 sequence (Q6B856 whole entry): as the sequence (P02554 whole entry) above, with A55T, V170M, A296S, V316I, G440E, E441G counted along it
T2 sequence (P81947 whole entry): as the sequence (P02550 whole entry) above, with S136L, G232S, A265I, T340S, E358Q counted along it

SMILES | EC50 [1, 8] [µM] | antitumor activity in T98G cells (in words) ([1]; T98G cells) | effect on T98G cell viability (in words) ([1]; T98G cells) | maximal killing (% ± SEM) ([1]; T98G cells, at 10 μM, 72 hours) [%] | increase in EC50 value relative to compound 8 ([1]; T98G cells) | Emax [1, 10] [%] | also measured
CCn1c2ccccc2c2cc(C(=O)N3CCN(C)CC3)ccc21 [Compound 9, 9-ethyl-3-(4-methylpiperazine-1-carbonyl)-9H-carbazole] | > 10 | only active at concentrations above five micromolar | did not affect T98G cell viability significantly | 13.2 | – | – | –
CCn1c2ccccc2c2cc(C(=O)Cc3ccccc3)ccc21 [Compound 13, 1-(9-ethyl-9H-carbazol-3-yl)-2-phenylethan-1-one] | > 10 | only active at concentrations above five micromolar | did not affect T98G cell viability significantly | – | more than 115 fold | – | maximal killing (% ± SEM) ([1]; T98G cells, at 3 μM, 72 hours): 14.0%
CCn1c2ccccc2c2cc(C(=O)c3cccc4c3NCCC4)ccc21 [Compound 24, 9-ethyl-3-(1,2,3,4-tetrahydroquinoline-8-carbonyl)-9H-carbazole] | > 10 | only active at concentrations above five micromolar | did not affect T98G cell viability significantly | – | – | – | maximal killing (% ± SEM) ([1]; T98G cells, at 100 nM, 72 hours): −18.0%
CCn1c2ccccc2c2cc(C(=O)c3cccc4ccccc34)ccc21 [Compound 14, 9-ethyl-3-(naphthalene-1-carbonyl)-9H-carbazole] | 1.7 | – | – | 72.0 | 20 fold | – | Emax [1, 9]: 72%
CCn1c2ccccc2c2cc(C(=O)c3ccc(F)cc3)ccc21 [Compound 11, 9-ethyl-3-(4-fluorobenzoyl)-9H-carbazole] | 8 | – | – | 54.8 | – | 55 | –
Cc1ccc(C(=O)c2ccc3c(c2)c2ccccc2n3CC(F)(F)F)c2ccccc12 [Compound 18, 3-(4-methylnaphthalene-1-carbonyl)-9-(2,2,2-trifluoroethyl)-9H-carbazole] | 5.6 | only active at concentrations above five micromolar | – | 35.6 | 64 fold | – | Emax [1, 9]: 35 to 45%; maximal efficacy at killing T98G cells ([1]; T98G cells, rounded values of the discussion): 35%
COc1ccc(/C=C\c2cc(OC)c(OC)c(OC)c2)cc1O [combretastatin A-4, reference compound] | – | – | – | – | – | – | EC50 ([1]; T98G cells, WST-1, 72 hours after treatment, read-out: EC50): 0.0006 µM; maximal killing ([1]; T98G cells, at 10 nM, 72 hours): 30.4%±2.1
CCn1c2ccccc2c2cc(C(=O)c3cccc4cccnc34)ccc21 [Compound 22, 9-ethyl-3-(quinoline-8-carbonyl)-9H-carbazole] | 8.8 | – | – | 60.0 | – | 60 | reduction of maximal antitumor efficacy relative to compound 25 [1]: 96%
CCn1c2ccccc2c2cc(C(=O)c3ccc(Cl)cc3)ccc21 [Compound 10, 3-(4-chlorobenzoyl)-9-ethyl-9H-carbazole] | 1.5 | – | – | 71.1 | – | 61 | –
CCCn1c2ccccc2c2cc(C(=O)c3ccc(C)c4ccccc34)ccc21 [Compound 16, 9-propyl-3-[(4-methylnaphthalen-1-yl)carbonyl]-9H-carbazole] | > 10 | only active at concentrations above five micromolar | did not affect T98G cell viability significantly | 16.3 | 115 fold | – | –
CCn1c2ccccc2c2cc(C(O)c3cccc4ncccc34)ccc21 (single isomer, unassigned; (+)) [(+)-19, (+)-(9-ethyl-9H-carbazol-3-yl)(quinolin-5-yl)methanol] | – | – | – | – | – | – | IC50 ([2]; fluorescent tubulin, 100 μl): 0.64 µM
CC(=O)O[C@H]1C(=O)[C@@]2(C)[C@H]([C@H](OC(=O)c3ccccc3)[C@]3(O)C[C@H](OC(=O)[C@H](O)[C@@H](NC(=O)c4ccccc4)c4ccccc4)C(C)=C1C3(C)C)[C@]1(OC(C)=O)CO[C@@H]1C[C@@H]2O [paclitaxel, reference compound] | – | – | – | – | – | – | maximal killing [1]: 63.2%±2.5; EC50 ([1]; Homo sapiens, T98G, 72 h): 148 µM; effect on MT in real-time tubulin polymerization (in words) ([2]; Paclitaxel 10 μM, 19 1 μM): stabilizes MT
Cc1ccc(C(=O)n2c3ccccc3c3ccccc32)c2ccccc12 [Compound 28, 9-(4-methylnaphthalene-1-carbonyl)-9H-carbazole] | 0.957 | – | – | 89.1 | – | 89 | –
CCn1c2ccccc2c2cc(C(=O)c3cccc4c3CCCN4)ccc21 [Compound 23, (9-ethyl-9H-carbazol-3-yl)(1,2,3,4-tetrahydroquinolin-5-yl)methanone] | > 10 | only active at concentrations above five micromolar | did not affect T98G cell viability significantly | – | – | – | maximal killing (% ± SEM) ([1]; T98G cells, at 3 μM, 72 hours): −17.0%; viability at 10 µM ([3]; Homo sapiens, 48 h, read-out: growth inhibition: mean): 102%; effect on proliferation and viability of NCI-60 cell lines (in words) ([3]; NCI-60, 10 μM, 48 hours): did not significantly affect the proliferation and viability of any of the cell lines; inhibition at 5 µM [4]: 4 ± 1%; IC50 ([5]; MT-Tubulin Partitioning IC50 (μM) (mean), sheared MTs at 37° C., 15 min): > 20 µM; effect on MT assembly/disassembly, MT-free tubulin partitioning (in words) ([5]; free tubulin pelleting assay): does not affect MT assembly; Agonist efficacy (% activation) CB1 [6]: −2 % activation; Antagonist efficacy (% activation) CB1 [6]: 16 % activation; EC50 ([6]; antagonist mode, read-out: Antagonist CB1, value in parentheses (EC50)): 0.183 µM; EC50 [7]: 0.067 µM; Agonist efficacy (% activation) CB2 ([7]; β-arrestin recruitment): 2 % activation; Antagonist efficacy (% activation) CB2 ([7]; β-arrestin recruitment): 20 % activation
CCn1c2ccccc2c2cc(C(=O)c3ccc(C)cc3)ccc21 [Compound 12, 9-ethyl-3-(4-methylbenzoyl)-9H-carbazole] | 0.993 | – | – | – | 11 fold | 84 | maximal killing (% ± SEM) ([1]; T98G cells, at 3 μM, 72 hours): 83.6%
CCCCCCC(C)(C)c1ccc([C@@H]2C[C@H](O)CC[C@H]2CCCO)c(O)c1 [positive control, CP55940, reference compound] | – | – | – | – | – | – | Agonist efficacy (% activation) CB1 [6]: 1940 % activation; Antagonist efficacy (% activation) CB1 [6]: 97 % activation; Antagonist efficacy (% activation) CB2 ([7]; β-arrestin recruitment): 92 % activation

— patent publication US11420967B2 (priority 2018, dated 2022)
